Experimental data: ChEMBL document CHEMBL1201862, “PubChem BioAssay data set” (2004)
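Cells were grown in 96-well plates and exposed to each compound for 48 hours at five concentrations; endpoints were interpolated linearly between bracketing concentrations, or set to the highest concentration if not reached. At the GI50, growth is halved.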 Calls of active or inactive are those of the source. No stated cut-off is given here; in the data, active = GI50 up to about 1.1 µM and inactive = higher.

What was measured:
Test in all cases: growth of human tumour cells (NCI), 48 h
HCT-15 = system: HCT-15
SR = system: SR
K562 = system: K562
SN12C = system: SN12C
HT-29 = system: HT-29
NCI-H226 = system: NCI-H226
A549 = system: A549
SF-295 = system: SF-295
DU-145 = system: DU-145
M14 = system: M14
MDA-MB-231 = system: MDA-MB-231
OVCAR-4 = system: OVCAR-4
OVCAR-5 = system: OVCAR-5
NCI/ADR-RES = system: NCI/ADR-RES
HOP-62 = system: HOP-62
Malme-3M = system: Malme-3M
UACC-62 = system: UACC-62
MOLT-4 = system: MOLT-4
CCRF-CEM = system: CCRF-CEM
IGROV-1 = system: IGROV-1
NCI-H522 = system: NCI-H522
NCI-H460 = system: NCI-H460
MDA-MB-435 = system: MDA-MB-435
SF-268 = system: SF-268
RXF 393 = system: RXF 393
TK-10 = system: TK-10
EKVX = system: EKVX
BT-549 = system: BT-549
Hs-578T = system: Hs-578T
HOP-92 = system: HOP-92
SNB-19 = system: SNB-19
OVCAR-8 = system: OVCAR-8
HL-60 = system: HL-60
U-251 = system: U-251
T47D = system: T47D
HCC 2998 = system: HCC 2998
CAKI-1 = system: CAKI-1
A498 = system: A498
SK-MEL-5 = system: SK-MEL-5
MDA-N = system: MDA-N
SW-620 = system: SW-620
SK-MEL-28 = system: SK-MEL-28
KM12 = system: KM12
LOX IMVI = system: LOX IMVI
UACC-257 = system: UACC-257
RPMI-8226 = system: RPMI-8226
ACHN = system: ACHN
HCT-116 = system: HCT-116
786-0 = system: 786-0
SK-MEL-2 = system: SK-MEL-2
NCI-H23 = system: NCI-H23
OVCAR-3 = system: OVCAR-3
PC-3 = system: PC-3
UO-31 = system: UO-31
SF-539 = system: SF-539
SNB-75 = system: SNB-75
SK-OV-3 = system: SK-OV-3
MCF7 = system: MCF7
COLO 205 = system: COLO 205

O=C(O)c1cc2ccccc2c(Cc2c(O)c(C(=O)O)cc3ccccc23)c1O [PAMOIC ACID]
GI50 (HCT-15): > 100 µM | GI50 (SR): > 100 µM (inactive) | GI50 (K562): > 100 µM (inactive) | GI50 (SN12C): > 100 µM (inactive) | GI50 (HT-29): > 100 µM (inactive) | GI50 (NCI-H226): > 100 µM (inactive) | GI50 (A549): > 100 µM (inactive) | GI50 (SF-295): > 100 µM (inactive) | GI50 (DU-145): > 100 µM (inactive) | GI50 (M14): > 100 µM (inactive) | GI50 (MDA-MB-231): > 100 µM (inactive) | GI50 (OVCAR-4): > 100 µM (inactive) | GI50 (OVCAR-5): > 100 µM (inactive) | GI50 (NCI/ADR-RES): > 100 µM (inactive) | GI50 (HOP-62): > 100 µM (inactive) | GI50 (Malme-3M): > 100 µM (inactive) | GI50 (UACC-62): > 100 µM (inactive) | GI50 (MOLT-4): > 100 µM (inactive) | GI50 (CCRF-CEM): > 100 µM (inactive) | GI50 (IGROV-1): > 100 µM (inactive) | GI50 (NCI-H522): > 100 µM (inactive) | GI50 (NCI-H460): > 100 µM (inactive) | GI50 (MDA-MB-435): > 100 µM (inactive) | GI50 (SF-268): > 100 µM (inactive) | GI50 (RXF 393): > 100 µM (inactive) | GI50 (TK-10): > 100 µM (inactive) | GI50 (EKVX): > 100 µM (inactive) | GI50 (BT-549): > 100 µM (inactive) | GI50 (Hs-578T): > 100 µM (inactive) | GI50 (HOP-92): > 100 µM (inactive) | GI50 (SNB-19): > 100 µM (inactive) | GI50 (OVCAR-8): > 100 µM (inactive) | GI50 (HL-60): > 100 µM (inactive) | GI50 (U-251): > 100 µM (inactive) | GI50 (T47D): > 100 µM (inactive) | GI50 (HCC 2998): > 100 µM (inactive) | GI50 (CAKI-1): > 100 µM (inactive) | GI50 (A498): > 100 µM (inactive) | GI50 (SK-MEL-5): > 100 µM (inactive) | GI50 (MDA-N): > 100 µM (inactive) | GI50 (SW-620): > 100 µM (inactive) | GI50 (SK-MEL-28): > 100 µM (inactive) | GI50 (KM12): > 100 µM (inactive) | GI50 (LOX IMVI): > 100 µM (inactive) | GI50 (UACC-257): > 100 µM (inactive) | GI50 (RPMI-8226): > 100 µM (inactive) | GI50 (ACHN): > 100 µM (inactive) | GI50 (HCT-116): > 100 µM (inactive) | GI50 (786-0): > 100 µM (inactive) | GI50 (SK-MEL-2): > 100 µM (inactive) | GI50 (NCI-H23): > 100 µM (inactive) | GI50 (OVCAR-3): > 100 µM (inactive) | GI50 (PC-3): > 100 µM (inactive) | GI50 (UO-31): > 100 µM (inactive)

CC(=O)C1=C(C)N2C(=NC3=C(CCc4ccccc43)C2c2ccc(F)cc2)S1 (stereo unspecified)
GI50 (SF-539): 80.5 µM (inactive) | GI50 (K562): 31.3 µM (inactive) | GI50 (SN12C): 51.3 µM (inactive) | GI50 (HT-29): 84.1 µM (inactive) | GI50 (NCI-H226): > 100 µM (inactive) | GI50 (A549): > 100 µM (inactive) | GI50 (SF-295): > 100 µM (inactive) | GI50 (DU-145): > 100 µM (inactive) | GI50 (M14): > 100 µM (inactive) | GI50 (MDA-MB-231): 22.3 µM (inactive) | GI50 (OVCAR-4): 56.1 µM (inactive) | GI50 (OVCAR-5): > 100 µM (inactive) | GI50 (NCI/ADR-RES): 37.3 µM (inactive) | GI50 (HOP-62): 84.1 µM (inactive) | GI50 (UACC-62): 78.2 µM (inactive) | GI50 (MOLT-4): 2.59 µM (inactive) | GI50 (SNB-75): 25.6 µM (inactive) | GI50 (CCRF-CEM): 40.3 µM (inactive) | GI50 (IGROV-1): 27.7 µM (inactive) | GI50 (MDA-MB-435): > 100 µM (inactive) | GI50 (SF-268): 61 µM (inactive) | GI50 (SK-OV-3): > 100 µM (inactive) | GI50 (RXF 393): 52.6 µM (inactive) | GI50 (MCF7): 60.5 µM (inactive) | GI50 (EKVX): 24 µM (inactive) | GI50 (BT-549): 93.5 µM (inactive) | GI50 (Hs-578T): 42.8 µM (inactive) | GI50 (HOP-92): 63.1 µM (inactive) | GI50 (SNB-19): > 100 µM (inactive) | GI50 (OVCAR-8): 62.5 µM (inactive) | GI50 (HL-60): 28.4 µM (inactive) | GI50 (U-251): 84.7 µM (inactive) | GI50 (COLO 205): 58.1 µM (inactive) | GI50 (T47D): 63.5 µM (inactive) | GI50 (HCC 2998): 83.9 µM (inactive) | GI50 (A498): 45.7 µM (inactive) | GI50 (SK-MEL-5): 30.1 µM (inactive) | GI50 (MDA-N): 55.6 µM (inactive) | GI50 (SW-620): > 100 µM (inactive) | GI50 (SK-MEL-28): > 100 µM (inactive) | GI50 (KM12): > 100 µM (inactive) | GI50 (LOX IMVI): 44.2 µM (inactive) | GI50 (UACC-257): 79.4 µM (inactive) | GI50 (RPMI-8226): 17.5 µM (inactive) | GI50 (ACHN): 77.6 µM (inactive) | GI50 (HCT-116): > 100 µM (inactive) | GI50 (786-0): > 100 µM (inactive) | GI50 (SK-MEL-2): > 100 µM (inactive) | GI50 (NCI-H23): > 100 µM (inactive) | GI50 (OVCAR-3): 67.9 µM (inactive) | GI50 (PC-3): 89.7 µM (inactive) | GI50 (UO-31): 52.7 µM (inactive)
